Measurements as given in article PMC5288202, “Simultaneous inhibition of Vps34 kinase would enhance PI3Kδ inhibitor cytotoxicity in the B-cell malignancies” (Oncotarget, 2016).

Legend:
Format in all cases: cell-based
[1] = tested on: MEC-2; assay: Autophagy markers LC3BII and p62 (immunoblotting)
[2] = tested on: HL-60; assay: Anti-proliferative effect; details: Homo sapiens, HL-60, read-out: GI50 HL-60
[3] = tested on: MEC-2; assay: Anti-proliferative effect; details: MEC2, read-out: GI50 MEC-2
[4] = tested on: OCI-AML-3; assay: Colony formation (colonogenic assay); details: Homo sapiens
[5] = tested on: FLT3-ITD positive primary AML cells; assay: Growth of AML primagraft cells ex vivo; details: 72 hours
Method: Mononuclear cells were isolated from AML patients. Mononuclear cells were isolated by density gradient centrifugation through Ficoll-Plaque Plus (Amersham Pharmacia Biotech AB, Uppsala, Sweden) at 2000 rpm for 30 minutes, followed by two washes in 1X PBS. Freeze-thawed cells were then cultured in liquid culture (DMEM, supplemented with 20% FBS). All blood and bone marrow samples from AML patients were obtained through written consent under approval of the Dana Farber Cancer Institute Institutional Review Board. The ethics committees approved the consent procedure.

[6] = target: T1, PI3Kβ (Mus musculus, UniProt Q8BTI9); assay: PI3K isoforms cellular selectivity assay (AKT phosphorylation, NIH-3T3, LPA); details: NIH-3T3 cells, LPA stimulation
T1 construct: endogenous in cells; host or cells: NIH-3T3
Method: (§1) Cells were lysed and AKT phosphorylation was determined by Western Blotting. Intensity of the bands was determined using ImageJ 1.42q (NIH, USA) and normalized to total AKT (loading control).

[7] = tested on: U937; assay: Anti-proliferative effect; details: Homo sapiens, U-937, read-out: GI50 U937
[8] = target: PI3Kδ (Homo sapiens, UniProt O00329); assay: PI3K isoforms cellular selectivity assay (AKT phosphorylation, Raji, anti-IgM); details: Raji cells, anti-IgM stimulation
[9] = tested on: MV4-11; assay: Colony formation (colonogenic assay); details: Homo sapiens, AML
[10] = tested on: OCI-AML-2; assay: Cell cycle analysis; details: OCI-AML-2, 48 h treatment
[11] = tested on: MV4-11; assay: Autophagy markers LC3BII and p62 (immunoblotting)
[12] = tested on: OCI-AML-2; assay: Induction of apoptosis (PARP cleavage); details: OCI-AML-2, evident at 3 μM to 10 μM
[13] = target: T2, PI3Kγ (Mus musculus, UniProt Q9JHG7); assay: PI3K isoforms cellular selectivity assay (AKT phosphorylation, RAW264.7, C5a); details: RAW264.7 cells, C5a stimulation
T2 construct: endogenous in cells; host or cells: RAW264.7 (ATCC)
Method: as §1

[14] = tested on: OCI-AML-3; assay: Anti-proliferative effect; details: Homo sapiens, AML(FLT3wt)
[15] = tested on: MOLM-14; assay: Anti-proliferative effect; details: AML (FLT3-ITD)
[16] = tested on: HEL; assay: Anti-proliferative effect; details: Homo sapiens, read-out: GI50 HEL
[17] = tested on: Hs 505T; assay: Anti-proliferative effect; details: Homo sapiens, read-out: GI50 Hs 505T
[18] = tested on: OCI-AML-2; assay: Anti-proliferative effect; details: Homo sapiens, OCI-AML2, read-out: GI50 OCI-AML-2
[19] = tested on: SKM-1; assay: Anti-proliferative effect; details: Homo sapiens, SKM-1, read-out: GI50 SKM-1
[20] = tested on: MEC-2; assay: Induction of apoptosis (PARP cleavage); details: MEC-2, evident at 3 μM to 10 μM

T2 sequence (Q9JHG7 whole entry, canonical isoform): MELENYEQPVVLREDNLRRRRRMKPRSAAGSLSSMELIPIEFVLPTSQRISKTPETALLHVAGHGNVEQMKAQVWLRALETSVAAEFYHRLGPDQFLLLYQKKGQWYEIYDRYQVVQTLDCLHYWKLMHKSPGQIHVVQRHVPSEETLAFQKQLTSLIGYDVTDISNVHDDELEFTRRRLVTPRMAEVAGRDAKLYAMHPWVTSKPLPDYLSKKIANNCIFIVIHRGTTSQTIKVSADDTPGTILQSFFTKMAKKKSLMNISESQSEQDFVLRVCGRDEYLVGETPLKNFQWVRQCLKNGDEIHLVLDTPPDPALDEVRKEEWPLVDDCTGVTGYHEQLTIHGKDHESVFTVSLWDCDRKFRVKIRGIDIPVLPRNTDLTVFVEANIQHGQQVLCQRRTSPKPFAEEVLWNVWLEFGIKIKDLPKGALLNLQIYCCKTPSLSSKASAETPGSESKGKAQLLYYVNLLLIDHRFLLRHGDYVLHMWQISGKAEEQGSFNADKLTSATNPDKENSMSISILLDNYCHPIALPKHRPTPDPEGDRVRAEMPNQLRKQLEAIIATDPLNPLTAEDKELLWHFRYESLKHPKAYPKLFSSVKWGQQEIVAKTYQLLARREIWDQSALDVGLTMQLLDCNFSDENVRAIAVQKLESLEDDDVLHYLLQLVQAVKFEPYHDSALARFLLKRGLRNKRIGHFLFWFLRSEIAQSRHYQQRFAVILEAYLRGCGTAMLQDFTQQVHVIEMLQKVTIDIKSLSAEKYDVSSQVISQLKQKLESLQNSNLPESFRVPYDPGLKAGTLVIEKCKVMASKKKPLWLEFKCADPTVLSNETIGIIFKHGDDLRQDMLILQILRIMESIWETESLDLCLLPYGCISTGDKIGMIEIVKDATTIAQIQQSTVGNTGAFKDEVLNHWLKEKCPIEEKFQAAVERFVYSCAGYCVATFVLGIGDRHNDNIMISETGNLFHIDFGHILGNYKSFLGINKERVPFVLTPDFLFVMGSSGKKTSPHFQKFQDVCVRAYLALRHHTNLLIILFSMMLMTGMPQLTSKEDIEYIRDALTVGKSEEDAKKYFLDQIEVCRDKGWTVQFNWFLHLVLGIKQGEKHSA
Sequence of PI3Kδ (O00329 whole entry, canonical isoform): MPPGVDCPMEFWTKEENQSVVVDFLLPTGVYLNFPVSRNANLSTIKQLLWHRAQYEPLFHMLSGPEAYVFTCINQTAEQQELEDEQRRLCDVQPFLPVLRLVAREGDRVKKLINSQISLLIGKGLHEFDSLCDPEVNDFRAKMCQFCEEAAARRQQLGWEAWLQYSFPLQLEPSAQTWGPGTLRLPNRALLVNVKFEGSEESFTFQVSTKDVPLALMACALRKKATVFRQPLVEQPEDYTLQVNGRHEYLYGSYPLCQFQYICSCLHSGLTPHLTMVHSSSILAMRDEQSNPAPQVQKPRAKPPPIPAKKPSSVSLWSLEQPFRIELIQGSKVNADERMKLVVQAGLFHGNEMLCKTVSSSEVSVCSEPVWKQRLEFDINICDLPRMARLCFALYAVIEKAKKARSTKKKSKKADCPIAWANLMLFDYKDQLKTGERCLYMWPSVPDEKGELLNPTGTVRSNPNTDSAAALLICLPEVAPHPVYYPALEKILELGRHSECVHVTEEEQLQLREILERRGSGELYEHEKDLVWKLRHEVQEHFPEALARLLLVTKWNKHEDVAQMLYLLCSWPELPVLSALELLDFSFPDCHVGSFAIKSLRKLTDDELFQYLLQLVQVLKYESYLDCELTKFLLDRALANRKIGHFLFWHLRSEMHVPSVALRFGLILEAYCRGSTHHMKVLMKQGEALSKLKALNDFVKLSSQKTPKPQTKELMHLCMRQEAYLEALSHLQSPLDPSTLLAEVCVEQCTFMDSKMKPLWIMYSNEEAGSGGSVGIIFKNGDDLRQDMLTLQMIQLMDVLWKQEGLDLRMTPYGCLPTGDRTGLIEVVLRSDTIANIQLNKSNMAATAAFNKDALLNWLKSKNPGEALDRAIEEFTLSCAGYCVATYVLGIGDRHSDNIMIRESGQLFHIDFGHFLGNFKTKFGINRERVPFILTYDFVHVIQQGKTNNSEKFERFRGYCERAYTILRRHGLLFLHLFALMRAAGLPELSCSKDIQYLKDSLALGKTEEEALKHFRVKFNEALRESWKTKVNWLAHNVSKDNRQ
Sequence of PI3Kδ (P27986 whole entry partner, canonical isoform): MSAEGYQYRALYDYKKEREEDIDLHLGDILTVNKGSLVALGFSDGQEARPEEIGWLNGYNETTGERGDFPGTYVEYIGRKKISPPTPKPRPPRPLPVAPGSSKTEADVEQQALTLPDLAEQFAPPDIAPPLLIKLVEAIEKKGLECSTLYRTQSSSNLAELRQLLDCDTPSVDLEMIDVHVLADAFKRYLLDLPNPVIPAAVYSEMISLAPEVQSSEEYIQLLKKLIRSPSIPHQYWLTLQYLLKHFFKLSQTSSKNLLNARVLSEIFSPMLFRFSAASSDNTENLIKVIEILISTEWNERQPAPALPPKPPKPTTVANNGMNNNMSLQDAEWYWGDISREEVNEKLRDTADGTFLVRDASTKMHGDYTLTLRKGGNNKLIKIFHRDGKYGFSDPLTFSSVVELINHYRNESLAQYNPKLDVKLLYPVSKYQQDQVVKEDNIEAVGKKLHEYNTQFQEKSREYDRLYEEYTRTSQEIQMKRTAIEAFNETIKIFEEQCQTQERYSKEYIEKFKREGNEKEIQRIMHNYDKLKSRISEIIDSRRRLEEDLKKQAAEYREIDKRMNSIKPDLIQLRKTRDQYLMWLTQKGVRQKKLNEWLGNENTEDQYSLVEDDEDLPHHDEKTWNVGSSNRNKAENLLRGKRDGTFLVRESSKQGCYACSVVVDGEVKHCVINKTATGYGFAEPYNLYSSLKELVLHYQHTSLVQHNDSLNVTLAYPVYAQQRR
T1 sequence (Q8BTI9 whole entry, canonical isoform): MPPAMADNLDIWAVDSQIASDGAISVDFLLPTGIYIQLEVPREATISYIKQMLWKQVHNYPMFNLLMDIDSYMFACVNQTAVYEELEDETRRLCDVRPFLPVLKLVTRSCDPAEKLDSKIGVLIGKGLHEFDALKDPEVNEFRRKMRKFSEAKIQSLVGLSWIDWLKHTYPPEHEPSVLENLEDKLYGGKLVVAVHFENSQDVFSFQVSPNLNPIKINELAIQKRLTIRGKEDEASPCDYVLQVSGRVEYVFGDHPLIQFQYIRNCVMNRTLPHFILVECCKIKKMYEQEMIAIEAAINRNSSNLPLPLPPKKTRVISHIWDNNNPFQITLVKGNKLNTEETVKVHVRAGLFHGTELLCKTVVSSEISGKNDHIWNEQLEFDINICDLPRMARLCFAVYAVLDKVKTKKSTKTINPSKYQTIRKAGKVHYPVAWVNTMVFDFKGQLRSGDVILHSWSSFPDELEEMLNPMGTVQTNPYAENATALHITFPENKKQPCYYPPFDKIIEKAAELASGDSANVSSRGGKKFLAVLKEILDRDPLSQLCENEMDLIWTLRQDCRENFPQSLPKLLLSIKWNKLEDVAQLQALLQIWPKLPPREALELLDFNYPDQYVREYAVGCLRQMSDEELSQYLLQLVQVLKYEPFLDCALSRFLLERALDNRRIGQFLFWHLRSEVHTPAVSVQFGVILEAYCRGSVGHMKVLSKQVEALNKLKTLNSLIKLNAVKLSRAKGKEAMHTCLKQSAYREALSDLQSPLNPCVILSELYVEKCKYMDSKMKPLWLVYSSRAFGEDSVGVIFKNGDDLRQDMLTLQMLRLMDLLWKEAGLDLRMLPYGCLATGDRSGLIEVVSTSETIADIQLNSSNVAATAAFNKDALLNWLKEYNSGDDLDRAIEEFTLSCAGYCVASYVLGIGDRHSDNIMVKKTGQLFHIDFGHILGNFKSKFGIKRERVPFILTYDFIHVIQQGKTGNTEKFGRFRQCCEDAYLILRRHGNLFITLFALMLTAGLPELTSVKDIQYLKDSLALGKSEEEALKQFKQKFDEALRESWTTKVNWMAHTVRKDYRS
T1 sequence (P26450 whole entry partner, canonical isoform): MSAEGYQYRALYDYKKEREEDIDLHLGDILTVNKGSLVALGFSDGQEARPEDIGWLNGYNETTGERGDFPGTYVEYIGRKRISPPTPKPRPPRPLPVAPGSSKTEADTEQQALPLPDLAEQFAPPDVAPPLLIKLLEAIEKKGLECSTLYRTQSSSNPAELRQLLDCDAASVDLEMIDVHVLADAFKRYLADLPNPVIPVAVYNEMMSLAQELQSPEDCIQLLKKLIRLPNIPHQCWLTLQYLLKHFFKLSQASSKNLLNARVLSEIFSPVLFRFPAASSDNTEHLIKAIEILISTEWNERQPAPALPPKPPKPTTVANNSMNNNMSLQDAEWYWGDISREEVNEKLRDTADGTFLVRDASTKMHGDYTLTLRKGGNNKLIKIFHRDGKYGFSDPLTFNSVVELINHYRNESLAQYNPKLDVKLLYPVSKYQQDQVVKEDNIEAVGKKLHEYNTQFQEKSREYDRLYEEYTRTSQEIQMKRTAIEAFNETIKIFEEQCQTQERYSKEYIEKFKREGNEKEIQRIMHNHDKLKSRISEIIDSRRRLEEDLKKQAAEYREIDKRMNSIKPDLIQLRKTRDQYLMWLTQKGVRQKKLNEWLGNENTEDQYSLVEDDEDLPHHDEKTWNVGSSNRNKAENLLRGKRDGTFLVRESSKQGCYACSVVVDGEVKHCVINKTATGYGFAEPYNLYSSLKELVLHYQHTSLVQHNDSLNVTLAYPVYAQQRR

In the case of `Cc1nc(NC(=O)CN)sc1-c1cnc(Cl)c(NS(=O)(=O)c2ccc(C(C)(C)C)cc2)c1` [PI3KD/V-IN-01, 2-amino-N-(5-(5-(4-tert-butylphenylsulfonamido)-6-chloropyridin-3-yl)-4-methylthiazol-2-yl)acetamide], the “levels of the autophagy markers, LC3BII and p62” value [1] is reported as “concentration-dependent increase”, the GI50 [2] is reported as 2700 nM and the GI50 [3] is reported as 2400 nM. The EC50 [4] was 1000 nM, the inhibition at 1 µM [5] was > 85% and the EC50 [6] was > 3000 nM. It also gave a GI50 [7] of 2200 nM, an EC50 [8] of 11 nM and an EC50 [9] of 124 nM. The cell cycle progression [10] was “no apparent cell cycle inhibition”, the “levels of the autophagy markers, LC3BII and p62” value [11] was “not observed” and the induction of apoptosis [12] was “only a modest induction of apoptosis”. The EC50 [13] was 186 nM, the GI50 [14] was 2400 nM and the GI50 [15] was 510 nM. The GI50 ([15]; Homo sapiens, MOLM-14) was < 1000 nM, the GI50 [16] was > 10000 nM and the GI50 [17] was > 10000 nM. For the same molecule, the GI50 [18] was 1000 nM, the GI50 [19] was 1000 nM and the induction of apoptosis [20] was “only a modest induction of apoptosis”.
